Test results: EP0259014A2, “5-Deoxy-5-fluorokanamycin B derivatives and processes for the production thereof” (ZAIDAN HOJIN BISEIBUTSU KAGAKU KENKYU KAI, priority 1986, dated 1988)
Converted amounts (≈) assume the structure as drawn. Read-outs that look alike come from different tables or passages of the source.

Assays:
[1] = system: Staphylococcus aureus 209P; experiment: MIC, serial dilution on Mueller Hinton agar; format: cell-based; details: Staphylococcus aureus 209P; Mueller Hinton agar, 37°C, 18 hours; read-out: MIC.
[2] = system: Staphylococcus aureus Ap01; experiment: MIC, serial dilution on Mueller Hinton agar; format: cell-based
[3] = system: Corynebacterium bovis 1810; experiment: MIC, serial dilution on Mueller Hinton agar; format: cell-based
[4] = system: Escherichia coli K-12; experiment: MIC, serial dilution on Mueller Hinton agar; format: cell-based
[5] = system: Escherichia coli K-12 R5; experiment: MIC, serial dilution on Mueller Hinton agar; format: cell-based; details: K12R5, 18 h
[6] = system: Escherichia coli K-12 LA 290 R55; experiment: MIC, serial dilution on Mueller Hinton agar; format: cell-based; details: Escherichia coli, K12LA290R55, 18 h
[7] = system: Klebsiella pneumoniae 22#3038; experiment: MIC, serial dilution on Mueller Hinton agar; format: cell-based; details: Klebsiella pneumoniae 22#3038, resistance mechanism APH(3')-II, ANT(2"), 37°C, 18 hours
Description: The antibacterial spectra so determined of the new compounds No. 1 to No. 13 (each in the form of the free base) of this invention are as shown in Table 1 below.

[8] = system: Proteus rettgeri GN 311; experiment: MIC, serial dilution on Mueller Hinton agar; format: cell-based; details: Providencia rettgeri, GN311; Proteus rettgeri GN 311; Mueller Hinton agar, 37°C, 18 hours; read-out: MIC.
[9] = system: Serratia marcescens; experiment: MIC, serial dilution on Mueller Hinton agar; format: cell-based
[10] = system: Providencia sp. Pv 16; experiment: MIC, serial dilution on Mueller Hinton agar; format: cell-based
[11] = system: Pseudomonas aeruginosa A3; experiment: MIC, serial dilution on Mueller Hinton agar; format: cell-based; details: Pseudomonas aeruginosa A3; Mueller Hinton agar, 37°C, 18 hours; read-out: MIC.
[12] = system: Pseudomonas aeruginosa GN 315; experiment: MIC, serial dilution on Mueller Hinton agar; format: cell-based; details: GN315; Pseudomonas aeruginosa GN 315, resistance mechanism AAC(6'); Mueller Hinton agar, 37°C, 18 hours; read-out: MIC.
[13] = in vivo; details: mouse, iv
[14] = system: Bacillus subtilis PCI219; experiment: MIC, serial dilution on Mueller Hinton agar; format: cell-based; details: Bacillus subtilis PCI219; Mueller Hinton agar, 37°C, 18 hours; read-out: MIC.
[15] = system: Escherichia coli K-12 ML 1629; experiment: MIC, serial dilution on Mueller Hinton agar; format: cell-based; details: K12ML1629, Escherichia coli K-12 ML 1629, resistance mechanism APH(3')-I, 37°C, 18 hours
[16] = system: Escherichia coli JR225; experiment: microbe, parasite or virus in culture; format: cell-based; details: Escherichia coli, JR225, 18 h
[17] = system: Escherichia coli JR66/W677; experiment: microbe, parasite or virus in culture; format: cell-based; details: JR66/W677, 18 h
[18] = system: Mycobacterium 607; experiment: MIC, serial dilution on Mueller Hinton agar; format: cell-based
[19] = Staphylococcus aureus Ap01, resistance mechanism ANT(4'), Mueller Hinton agar, 37°C, 18 hours, read-out: MIC.
[20] = Corynebacterium bovis 1810, Mueller Hinton agar, 37°C, 18 hours, read-out: MIC.
[21] = K12, Escherichia coli K-12, Mueller Hinton agar, 37°C, 18 hours, read-out: MIC.
[22] = Mueller Hinton agar, 37°C, 18 hours, read-out: MIC.
[23] = SP.PV16, Providencia sp. Pv 16, resistance mechanism AAC(2'), Mueller Hinton agar, 37°C, 18 hours, read-out: MIC.
[24] = Mycobacterium 607, Mueller Hinton agar, 37°C, incubated for 40 hours, read-out: MIC.

Structure (SMILES)	MIC [1]	MIC [2, 19]	MIC [3, 20]	MIC [4, 21]	MIC [5]	MIC [6]	MIC [7]	MIC [8]	MIC [9, 22]	MIC [11]	MIC [12]	LD50 [13]	MIC [14]	MIC [15]	MIC [16]	MIC [17]	MIC [10, 23]	MIC [18, 24]	MIC ([9]; 18 h)	also measured
NC[C@H]1O[C@H](O[C@H]2[C@H](F)[C@@H](O[C@H]3O[C@H](CO)[C@@H](O)[C@H](N)[C@H]3O)[C@H](N)C[C@@H]2N)[C@H](N)C[C@@H]1O [Compound No. 2, 5,3'-Dideoxy-5-fluorokanamycin B]	0.39 µg/mL (≈ 0.831 µM)	0.39 µg/mL (≈ 0.831 µM)	1.56 µg/mL (≈ 3.32 µM)	< 0.2 µg/mL	25 µg/mL (≈ 53.2 µM)	3.12 µg/mL (≈ 6.65 µM)	3.12 µg/mL (≈ 6.65 µM)	< 0.2 µg/mL	6.25 µg/mL (≈ 13.3 µM)	< 0.2 µg/mL	50 µg/mL (≈ 106 µM)	200 mg/kg	–	–	–	–	–	–	–	MIC ([10]; Providencia, SP.PV16, 18 h): 3.12 µg/mL (≈ 6.65 µM)
NC[C@@H]1CC[C@@H](N)[C@@H](O[C@H]2[C@H](F)[C@@H](O[C@H]3O[C@H](CO)[C@@H](O)[C@H](N)[C@H]3O)[C@H](N)C[C@@H]2N)O1 [Compound No. 4, 5,3',4'-Trideoxy-5-fluorokanamycin B]	0.78 µg/mL (≈ 1.72 µM)	–	–	–	100 µg/mL (≈ 221 µM)	6.25 µg/mL (≈ 13.8 µM)	6.25 µg/mL (≈ 13.8 µM)	0.78 µg/mL (≈ 1.72 µM)	12.5 µg/mL (≈ 27.6 µM)	0.39 µg/mL (≈ 0.86 µM)	100 µg/mL (≈ 221 µM)	140 mg/kg	0.78 µg/mL (≈ 1.72 µM)	3.12 µg/mL (≈ 6.88 µM)	3.12 µg/mL (≈ 6.88 µM)	3.12 µg/mL (≈ 6.88 µM)	12.5 µg/mL (≈ 27.6 µM)	–	–	MIC ([2]; Staphylococcus aureus, AP01, 18 h): 3.12 µg/mL (≈ 6.88 µM); MIC ([3]; Corynebacterium bovis, 1810, 18 h): 6.25 µg/mL (≈ 13.8 µM); MIC ([4]; Escherichia coli, K12, 18 h): 3.12 µg/mL (≈ 6.88 µM); MIC ([18]; Mycobacterium, 607, 40 h): 6.25 µg/mL (≈ 13.8 µM)
NCC[C@H](O)C(=O)N[C@@H]1C[C@H](N)[C@@H](O[C@H]2O[C@H](CN)[C@@H](O)C[C@H]2N)[C@H](F)[C@H]1O[C@H]1O[C@H](CO)[C@@H](O)[C@H](N)[C@H]1O [Compound No. 9, 1-N-(4-Amino-2-(S)-hydroxybutyryl)-5,3'-dideoxy-5-fluorokanamycin B]	0.39 µg/mL (≈ 0.683 µM)	0.78 µg/mL (≈ 1.37 µM)	< 0.2 µg/mL	< 0.2 µg/mL	3.12 µg/mL (≈ 5.47 µM)	0.78 µg/mL (≈ 1.37 µM)	1.56 µg/mL (≈ 2.73 µM)	< 0.2 µg/mL	–	0.39 µg/mL (≈ 0.683 µM)	6.25 µg/mL (≈ 11 µM)	150 mg/kg	< 0.2 µg/mL	0.78 µg/mL (≈ 1.37 µM)	0.39 µg/mL (≈ 0.683 µM)	0.78 µg/mL (≈ 1.37 µM)	0.78 µg/mL (≈ 1.37 µM)	0.78 µg/mL (≈ 1.37 µM)	3.12 µg/mL (≈ 5.47 µM)	–
NCC[C@H](O)C(=O)N[C@@H]1C[C@H](N)[C@@H](O[C@H]2O[C@H](CN)CC[C@H]2N)[C@H](F)[C@H]1O[C@H]1O[C@H](CO)[C@@H](O)[C@H](N)[C@H]1O [Compound No. 13, 1-N-(4-Amino-2-(S)-hydroxybutyryl)-5,3',4-trideoxy-5-fluorokanamycin B]	0.39 µg/mL (≈ 0.703 µM)	0.78 µg/mL (≈ 1.41 µM)	< 0.2 µg/mL	0.2 µg/mL (≈ 0.361 µM)	50 µg/mL (≈ 90.2 µM)	0.78 µg/mL (≈ 1.41 µM)	0.78 µg/mL (≈ 1.41 µM)	< 0.2 µg/mL	1.56 µg/mL (≈ 2.81 µM)	0.39 µg/mL (≈ 0.703 µM)	6.25 µg/mL (≈ 11.3 µM)	150 mg/kg	0.39 µg/mL (≈ 0.703 µM)	0.39 µg/mL (≈ 0.703 µM)	0.2 µg/mL (≈ 0.361 µM)	0.78 µg/mL (≈ 1.41 µM)	0.78 µg/mL (≈ 1.41 µM)	0.78 µg/mL (≈ 1.41 µM)	–	–
NC[C@H]1O[C@H](O[C@H]2[C@H](O)[C@@H](O[C@H]3O[C@H](CO)[C@@H](O)[C@H](N)[C@H]3O)[C@H](N)C[C@@H]2N)[C@H](N)C[C@@H]1O [TMB, 3'-deoxykanamycin B, reference compound]	< 0.2 µg/mL	1.56 µg/mL (≈ 3.34 µM)	6.25 µg/mL (≈ 13.4 µM)	0.39 µg/mL (≈ 0.834 µM)	100 µg/mL (≈ 214 µM)	25 µg/mL (≈ 53.5 µM)	12.5 µg/mL (≈ 26.7 µM)	0.2 µg/mL (≈ 0.428 µM)	–	< 0.2 µg/mL	50 µg/mL (≈ 107 µM)	80 mg/kg	< 0.2 µg/mL	–	25 µg/mL (≈ 53.5 µM)	12.5 µg/mL (≈ 26.7 µM)	6.25 µg/mL (≈ 13.4 µM)	–	12.5 µg/mL (≈ 26.7 µM)	–
